Series [1] addresses CYP3A4 (Homo sapiens, UniProt P08684). Briefly: Cocktail Cyp-450 inhibition, CYP3A4. It counts as in vitro ADME.
Series [2] concerns Na Ch. The series is described as follows: CVS panel, Na channel.
The test system of series [3] is Ca Ch. The series is described as follows: CVS panel, Ca channel. From the text:
(§1) The compounds of the invention/examples may have advantages associated with in vitro potency, kill kinetics (i.e. bactericidal effect) in vitro, PK properties, food effect, safety/toxicity (including liver toxicity, coagulation, […]), metabolic stability, Ames II negativity, MNT negativity, aqueous based solubility (and ability to formulate) and/or cardiovascular effect e.g. on animals (e.g. anesthetized guinea pig). The data below that was generated/calculated may be obtained using standard methods/assays, for instance that are available in the literature or which may be performed by a supplier (e.g. Microsomal Stability Assay—Cyprotex, Mitochondrial toxicity (Glu/Gal) assay —Cyprotex, as well as literature CYP cocktail inhibition assays). In some instances, GSH was measured (reactive metabolites, glucuronidation) to observe if a dihydrodiol is observed by LCMS (fragmentation ions), which would correspond to a dihydroxylation on the core heterocycle.

The test system of series [4] is Cyp-450 (cocktail, isoforms not named). The series is described as follows: Cocktail Cyp-450 inhibition. It counts as in vitro ADME. The conditions noted are these: unit inferred; read-out: Cocktail Cyp-450, IC50.
From the text: as §1

The target of series [5] is hERGdof (Homo sapiens, UniProt Q12809). The series is described as follows: CVS panel, hERGdof. It counts as binding.
Series [6] can be described thus: in vitro. Conditions: mouse, microsomes.
Series [7] concerns Mycobacterium tuberculosis strain EH4.0 expressing green-fluorescent protein (GFP). The series is described as follows: microbe, parasite or virus in culture. Type of series: cell-based. Conditions: 168 h, read-out: pIC50 (converted).
Series [8] is described as follows: in vitro. Conditions: human, microsomes.
Series [9] can be described thus: Microsomal stability CLint (M). The conditions noted are these: mouse, microsomes.
The nature of series [10]: Microsomal stability CLint (H). The conditions noted are these: human, microsomes.
The conditions of series [11]: in vivo.
Series [12] in a line: Mitochondrial toxicity (Glu/Gal) assay. It counts as cell-based.
From the text: as §1

Series [13] is described as follows: GSH (GSH/CN) reactive metabolite measurement. It counts as in vitro ADME.
From the text: as §1

Series [14] is described as follows: Bioavailability in rodents.
Series [15] addresses hERG (Homo sapiens, UniProt Q12809). Briefly: CVS panel, hERGdof. It counts as binding. The conditions noted are these: human.

Read-outs that look alike come from different tables or passages of the source. Some results are limits rather than exact numbers.

Consider 39 compounds from patent US20220340564A1, “ANTIBACTERIAL COMPOUNDS” (Janssen Sciences Ireland Unlimited Company, priority 2019, published 2022).

Chain of hERGdof (Q12809 whole entry): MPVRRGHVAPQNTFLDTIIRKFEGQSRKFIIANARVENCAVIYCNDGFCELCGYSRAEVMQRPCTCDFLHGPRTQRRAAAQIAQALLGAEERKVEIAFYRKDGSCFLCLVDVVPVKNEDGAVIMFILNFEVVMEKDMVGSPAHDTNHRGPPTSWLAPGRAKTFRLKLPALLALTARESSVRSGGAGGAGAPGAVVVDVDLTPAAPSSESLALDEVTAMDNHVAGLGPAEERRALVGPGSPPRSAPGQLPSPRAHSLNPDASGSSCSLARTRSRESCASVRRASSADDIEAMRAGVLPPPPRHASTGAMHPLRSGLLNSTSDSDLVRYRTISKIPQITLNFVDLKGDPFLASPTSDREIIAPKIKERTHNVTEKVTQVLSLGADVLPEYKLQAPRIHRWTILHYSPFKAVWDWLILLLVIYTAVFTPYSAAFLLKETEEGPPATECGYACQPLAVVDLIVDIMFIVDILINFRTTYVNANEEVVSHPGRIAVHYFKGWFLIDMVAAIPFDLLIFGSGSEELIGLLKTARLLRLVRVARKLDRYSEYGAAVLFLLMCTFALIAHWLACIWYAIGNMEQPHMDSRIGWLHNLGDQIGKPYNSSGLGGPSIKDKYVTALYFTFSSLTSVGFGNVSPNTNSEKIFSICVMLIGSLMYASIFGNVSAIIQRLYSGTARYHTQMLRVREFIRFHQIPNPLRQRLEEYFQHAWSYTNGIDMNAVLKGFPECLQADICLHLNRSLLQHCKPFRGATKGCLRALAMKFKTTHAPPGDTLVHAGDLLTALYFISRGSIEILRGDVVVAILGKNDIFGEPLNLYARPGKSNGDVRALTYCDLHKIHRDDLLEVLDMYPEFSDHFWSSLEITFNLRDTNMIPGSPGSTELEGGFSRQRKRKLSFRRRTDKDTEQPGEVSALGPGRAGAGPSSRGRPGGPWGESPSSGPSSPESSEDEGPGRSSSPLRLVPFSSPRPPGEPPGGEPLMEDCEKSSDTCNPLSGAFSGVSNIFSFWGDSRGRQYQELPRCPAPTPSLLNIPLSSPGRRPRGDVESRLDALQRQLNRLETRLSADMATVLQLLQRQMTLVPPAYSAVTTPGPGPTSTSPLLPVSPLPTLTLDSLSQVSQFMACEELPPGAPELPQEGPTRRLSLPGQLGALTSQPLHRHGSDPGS
Chain of hERG (Q12809 whole entry): as above
Chain of CYP3A4 (P08684 whole entry): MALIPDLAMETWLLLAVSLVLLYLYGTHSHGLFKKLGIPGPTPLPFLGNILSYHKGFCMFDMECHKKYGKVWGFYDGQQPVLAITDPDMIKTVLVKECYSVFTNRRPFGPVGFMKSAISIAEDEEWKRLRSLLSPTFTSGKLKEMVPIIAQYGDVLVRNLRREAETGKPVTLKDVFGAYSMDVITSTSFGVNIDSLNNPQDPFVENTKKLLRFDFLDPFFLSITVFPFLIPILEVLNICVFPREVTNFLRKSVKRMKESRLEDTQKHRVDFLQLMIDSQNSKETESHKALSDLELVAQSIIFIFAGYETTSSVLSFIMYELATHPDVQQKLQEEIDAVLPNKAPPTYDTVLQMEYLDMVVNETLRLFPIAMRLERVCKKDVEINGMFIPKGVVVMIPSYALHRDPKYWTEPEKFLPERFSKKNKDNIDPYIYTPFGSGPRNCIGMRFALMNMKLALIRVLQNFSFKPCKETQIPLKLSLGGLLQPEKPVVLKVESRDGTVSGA

On to `CCc1nc2ccc(Cl)cn2c1C(=O)NCc1ccc(N2CCN(S(C)(=O)=O)C=N2)cc1` [Compound 20], for which the IC50 was 13.2 µM in series [1]; above 10 µM in series [2]; above 10 µM in [3]; above 20 µM in [4]; above 10 µM in series [5] (read-out: CVS hERGdof, IC50); 0.0316 µM in series [7]. The microsomal CLint in series [6] was determined as 15.9 µL/min/mg; in [8], 56.6 µL/min/mg.
With `CCc1nc2ccc(Cl)cn2c1C(=O)NCc1ccc(N2CCN(S(=O)(=O)C(F)(F)F)C=N2)cc1F` [Compound 16], the IC50 in series [2] was above 10 µM; in [3], above 10 µM; in series [4] it was above 20 µM; in [5] (read-out: CVS hERGdof, IC50) it was above 10 µM; in [7], 0.00631 µM. Moreover, the microsomal CLint was determined as 18 µL/min/mg in series [9] and 24 µL/min/mg in series [10].
Regarding `O=C(NCc1ccc(N2CCN(S(=O)(=O)C(F)(F)F)C=N2)c(F)c1)c1c(C(F)(F)F)nc2ccccn12` [Compound 152], the “bioavailability (as shown in rodents)” value in [11] was “good bioavailaibility”. In [12], the “Glu/Gal assay ratio (mitotoxicity)” value is given as below 3. The “GSH / reactive metabolites” value in [13] is “formation of reactive metabolites was blocked”. Besides, the IC50 in series [7] was 0.002 µM.
With `CCc1nc2ccc(Cl)cn2c1C(=O)NCc1ccc(N2CCN(S(=O)(=O)C(F)(F)F)C(OC)=N2)cc1` [Compound 6], the IC50 in [2] was above 10 µM; in [3], above 10 µM; in series [4] it was above 20 µM; in series [5] (read-out: CVS hERGdof, IC50), above 10 µM; in series [7], 0.00631 µM. The “Glu/Gal assay ratio (mitotoxicity)” value in series [12] is below 3. Also, the “GSH / reactive metabolites” value in [13] is “no measure of GSH”. The values for the microsomal CLint in [6] and in [8] were 49 µL/min/mg and 37.6 µL/min/mg, respectively.
Turning to `CCc1nc2ccc(C#N)cn2c1C(=O)NCc1ccc(N2CCN(S(=O)(=O)C(F)(F)F)C(OC)=N2)c(F)c1` [Compound 73], the IC50 was above 10 µM in [2]; above 10 µM in series [3]; above 20 µM in series [4]; above 10 µM in series [5] (read-out: CVS hERGdof, IC50); 0.0513 µM in [7]. Moreover, in series [13], the “GSH / reactive metabolites” value is on record as “no measure of GSH”. The values for the microsomal CLint in series [6] and in series [8] were 93 µL/min/mg and 18 µL/min/mg, respectively.
As for `CCc1nc2ccc(Cl)cn2c1C(=O)NCc1ccc(N2CCN(S(=O)(=O)C(F)(F)F)C=N2)c(F)c1` [Compound 9], the IC50 was above 10 µM in [2]; above 10 µM in series [3]; above 20 µM in [4]; above 10 µM in series [5] (read-out: CVS hERGdof, IC50); 0.000631 µM in series [7]. Moreover, the microsomal CLint in [9] worked out at 41 µL/min/mg; in series [10] it was 19 µL/min/mg.
Take `CCc1nc2ccc(Cl)cn2c1C(=O)NCc1ccc(N2CCN(S(=O)(=O)C(F)(F)F)C=N2)cc1` [Compound 1]: the IC50 in series [2] is above 10 µM; in series [3] it was above 10 µM; in [4] it was above 20 µM; in [5], above 10 µM; in series [7], 0.00708 µM. In addition, the “Glu/Gal assay ratio (mitotoxicity)” value in series [12] is below 3. Moreover, the results for the microsomal CLint in [9] and in series [10] were 21.5 µL/min/mg and 29.6 µL/min/mg, respectively. Besides, in [14], the “bioavailability (as shown in rodents)” value is “good bioavailaibility”.
For the compound `CCc1nc2cc(OC)ccn2c1C(=O)NCc1ccc(N2CCN(S(=O)(=O)C(F)(F)F)C=N2)cc1` [Compound 51], in [7], the IC50 was 0.0457 µM.
Same read-out and setting: the value for `CCc1nc2cc(Br)c(C)cn2c1C(=O)NCc1ccc(N2CCN(S(=O)(=O)C(F)(F)F)C=N2)c(F)c1` [Compound 97] was 0.0339 µM.
The same measure, in the same setting: the value for `CCc1nc2c(F)cc(C)cn2c1C(=O)NCc1cnc(N2CCN(S(=O)(=O)C(F)(F)F)C=N2)c(F)c1` [Compound 181] was 0.00631 µM.
Still for that read-out and setting: next, `CCc1nc2nc(OC)ccn2c1C(=O)NCc1ccc(N2CCN(S(=O)(=O)C(F)(F)F)C=N2)c(F)c1` [Compound 115]: 0.0158 µM.
As to `CCc1nc2c(Br)cc(C)cn2c1C(=O)NCc1ccc(N2CCN(S(=O)(=O)C(F)(F)F)C=N2)c(F)c1` [Compound 166], the IC50 in series [7] is 0.245 µM.
On the same count and under the same terms, next, `COC1=NN(c2ccc(CNC(=O)c3c(C(F)(F)F)nc4ccccn34)cc2)CCN1S(=O)(=O)C(F)(F)F` [Compound 150]: 0.00295 µM; `CCc1nc2cc(F)c(Cl)cn2c1C(=O)NCc1ccc(N2CCNC=N2)c(F)c1` [Compound 202]: 0.389 µM.
The same measure, in the same setting: the value for `CCc1nc2ncc(C)cn2c1C(=O)NCc1cnc(N2CCN(S(=O)(=O)C(F)(F)F)C=N2)c(F)c1` [Compound 201] was 0.012 µM; that for `CCc1nc2ccc(C)cn2c1C(=O)NCc1ccc(N2CCN(S(=O)(=O)C(F)(F)F)C=N2)c(F)c1` [Compound 164] was 0.000245 µM.
Still for that read-out and setting: next, `CCc1nc2cc(Cl)c(C)cn2c1C(=O)NCc1ccc(N2CCN(S(=O)(=O)C(F)(F)F)C(OC)=N2)c(F)c1` [Compound 209]: 0.0112 µM; `CCc1nc2cc3c(cn2c1C(=O)NCc1ccc(N2CCN(S(=O)(=O)C(F)(F)F)C=N2)c(F)c1)CCC3` [Compound 113]: 0.0162 µM; `Cc1cn2c(C(=O)NCc3ccc(N4CCN(S(=O)(=O)C(F)(F)F)C=N4)c(F)c3)c(C(F)(F)F)nc2s1` [Compound 136]: 0.00631 µM.
For the compound `CCc1nc2cc(C)c(Cl)cn2c1C(=O)NCc1ccc(N2CCN(S(=O)(=O)C(F)(F)F)C(OC)=N2)c(F)c1` [Compound 132], the IC50 in [7] was 0.00832 µM.
Still for that read-out and setting: next, `CCc1nc2cc(Cl)c(Cl)cn2c1C(=O)NCc1ccc(N2CCN(S(=O)(=O)C(F)(F)F)C=N2)c(F)c1` [Compound 118]: 0.0138 µM; `COC1=NN(c2ccc(CNC(=O)c3c(C(F)F)nc4n3CCCC4)cc2F)CCN1S(=O)(=O)C(F)(F)F` [Compound 137]: 0.00617 µM.
On the same count and under the same terms, the value for `CCc1nc2nc(C)c(F)cn2c1C(=O)NCc1ccc(N2CCN(S(=O)(=O)C(F)(F)F)C=N2)c(F)c1` [Compound 177] was 0.00794 µM.
On the same count and under the same terms, next, `CCc1nc2ccc(N3CCCC3)cn2c1C(=O)NCc1ccc(N2CCN(S(=O)(=O)C(F)(F)F)C=N2)cc1` [Compound 65]: at least 0.501 µM; `CCc1nc2ccc(F)cn2c1C(=O)NCc1ccc(N2CCN(S(=O)(=O)C(F)(F)F)C=N2)c(F)c1` [Compound 156]: 0.00138 µM.
For the compound `CCc1nc2nc3c(cn2c1C(=O)NCc1ccc(N2CCN(S(=O)(=O)C(F)(F)F)C=N2)c(F)c1)CCCC3` [Compound 119], the IC50 in series [7] was 0.0135 µM.
In the case of `CCc1nc2ncc(F)cn2c1C(=O)NCc1ccc(N2CCN(S(=O)(=O)C(F)(F)F)C=N2)cc1` [Compound 10], the IC50 in series [7] was 0.0631 µM.
Still for that read-out and setting: next, `CCc1nc2ccc(Cl)cn2c1C(=O)NCc1cc(F)c(N2CCN(S(=O)(=O)C(F)(F)F)C=N2)c(F)c1` [Compound 35]: 0.00501 µM; `COC1=NN(c2ccc(CNC(=O)c3c(C(F)F)nc4ccc(Cl)cn34)cc2F)CCN1S(=O)(=O)C(F)(F)F` [Compound 206]: 0.00245 µM.
Still for that read-out and setting: the value for `Cc1cc(F)c2ncc(C(=O)NCc3cnc(N4CCN(S(=O)(=O)C(F)(F)F)C=N4)c(F)c3)n2c1` [Compound 178] was 0.2 µM; that for `O=C(NCc1ccc(N2CCN(S(=O)(=O)C(F)(F)F)C=N2)cc1)c1c(C(F)F)nc2ccccn12` [Compound 128] was 0.00912 µM; that for `CCc1nc2nc(N)c(F)cn2c1C(=O)NCc1ccc(N2CCN(S(=O)(=O)C(F)(F)F)C=N2)c(F)c1` [Compound 170] was 0.316 µM.
Still for that read-out and setting: next, `COC1=NN(c2ccc(CNC(=O)c3c(C(F)F)nc4n3CCCC4)cc2)CCN1S(=O)(=O)C(F)(F)F` [Compound 109]: 0.02 µM; `CCc1nc2c(N)cc(C)cn2c1C(=O)NCc1ccc(N2CCN(S(=O)(=O)C(F)(F)F)C=N2)c(F)c1` [Compound 212]: 0.0257 µM; `CCc1nc2cc(Cl)c(OC)cn2c1C(=O)NCc1ccc(N2CCN(S(=O)(=O)C(F)(F)F)C(OC)=N2)c(F)c1` [Compound 49]: 0.0234 µM.
For the compound `CCc1nc2ccc(Cl)cn2c1C(=O)NCc1cnc(N2CCN(S(=O)(=O)C(F)(F)F)C=N2)c(F)c1` [Compound 142], the IC50 in series [7] was 0.00468 µM.
Still for that read-out and setting: next, `CCc1nc2nc(OC)c(Cl)cn2c1C(=O)NCc1ccc(N2CCN(S(=O)(=O)C(F)(F)F)C=N2)c(F)c1` [Compound 86]: 0.0891 µM.
In the case of `CCc1nc2ncc(Cl)cn2c1C(=O)NCc1ccc(N2CCN(S(=O)(=O)C(F)(F)F)C=N2)cc1` [Compound 13], the IC50 was above 10 µM in series [2]; above 10 µM in [3]; above 20 µM in [4]; 7.4 µM in series [15]; 0.00398 µM in series [7]. Also, the microsomal CLint in [9] is 13.3 µL/min/mg; in [10], 16.3 µL/min/mg.
With `CCc1nc2ccc(C#N)cn2c1C(=O)NCc1ccc(N2CCN(S(=O)(=O)C(F)(F)F)C(OC)=N2)cc1` [Compound 71], the IC50 in series [7] was 0.166 µM.

Usually microsomal CLint stands for the rate of metabolic loss divided by the concentration.
